The values below come from paper doi:10.1101/2025.05.12.653380v2 (biorxiv, 2026).

The assay deals with T1, HPC (helicase-primase complex) of HHV1, UL5-UL52-UL8 (Human alphaherpesvirus 1 strain 17, UniProt P10189+P10236).
T1 sequence (P10189 1-882): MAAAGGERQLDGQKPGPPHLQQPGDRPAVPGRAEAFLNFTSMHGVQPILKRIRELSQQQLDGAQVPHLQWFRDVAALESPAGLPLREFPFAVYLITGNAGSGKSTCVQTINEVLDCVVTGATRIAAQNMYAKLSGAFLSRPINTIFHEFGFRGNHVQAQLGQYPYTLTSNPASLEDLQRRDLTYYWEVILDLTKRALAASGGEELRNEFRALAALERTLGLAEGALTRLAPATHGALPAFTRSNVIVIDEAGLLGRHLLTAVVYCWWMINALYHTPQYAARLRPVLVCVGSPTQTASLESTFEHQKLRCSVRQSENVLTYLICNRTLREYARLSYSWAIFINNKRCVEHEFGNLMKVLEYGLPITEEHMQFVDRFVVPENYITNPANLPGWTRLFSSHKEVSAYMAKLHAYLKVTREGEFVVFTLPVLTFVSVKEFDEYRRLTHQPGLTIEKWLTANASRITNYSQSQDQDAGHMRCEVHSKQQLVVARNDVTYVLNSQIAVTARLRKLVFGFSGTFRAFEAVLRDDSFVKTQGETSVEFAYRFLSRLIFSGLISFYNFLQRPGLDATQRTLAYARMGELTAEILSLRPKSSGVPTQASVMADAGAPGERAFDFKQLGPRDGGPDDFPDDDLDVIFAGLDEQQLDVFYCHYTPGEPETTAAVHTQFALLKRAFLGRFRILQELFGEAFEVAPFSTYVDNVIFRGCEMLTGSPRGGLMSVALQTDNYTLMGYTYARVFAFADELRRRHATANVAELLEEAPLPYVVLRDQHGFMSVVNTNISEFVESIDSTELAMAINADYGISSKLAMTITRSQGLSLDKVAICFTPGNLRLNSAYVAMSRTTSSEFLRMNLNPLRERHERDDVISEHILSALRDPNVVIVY
T1 sequence (P10236 1-1058): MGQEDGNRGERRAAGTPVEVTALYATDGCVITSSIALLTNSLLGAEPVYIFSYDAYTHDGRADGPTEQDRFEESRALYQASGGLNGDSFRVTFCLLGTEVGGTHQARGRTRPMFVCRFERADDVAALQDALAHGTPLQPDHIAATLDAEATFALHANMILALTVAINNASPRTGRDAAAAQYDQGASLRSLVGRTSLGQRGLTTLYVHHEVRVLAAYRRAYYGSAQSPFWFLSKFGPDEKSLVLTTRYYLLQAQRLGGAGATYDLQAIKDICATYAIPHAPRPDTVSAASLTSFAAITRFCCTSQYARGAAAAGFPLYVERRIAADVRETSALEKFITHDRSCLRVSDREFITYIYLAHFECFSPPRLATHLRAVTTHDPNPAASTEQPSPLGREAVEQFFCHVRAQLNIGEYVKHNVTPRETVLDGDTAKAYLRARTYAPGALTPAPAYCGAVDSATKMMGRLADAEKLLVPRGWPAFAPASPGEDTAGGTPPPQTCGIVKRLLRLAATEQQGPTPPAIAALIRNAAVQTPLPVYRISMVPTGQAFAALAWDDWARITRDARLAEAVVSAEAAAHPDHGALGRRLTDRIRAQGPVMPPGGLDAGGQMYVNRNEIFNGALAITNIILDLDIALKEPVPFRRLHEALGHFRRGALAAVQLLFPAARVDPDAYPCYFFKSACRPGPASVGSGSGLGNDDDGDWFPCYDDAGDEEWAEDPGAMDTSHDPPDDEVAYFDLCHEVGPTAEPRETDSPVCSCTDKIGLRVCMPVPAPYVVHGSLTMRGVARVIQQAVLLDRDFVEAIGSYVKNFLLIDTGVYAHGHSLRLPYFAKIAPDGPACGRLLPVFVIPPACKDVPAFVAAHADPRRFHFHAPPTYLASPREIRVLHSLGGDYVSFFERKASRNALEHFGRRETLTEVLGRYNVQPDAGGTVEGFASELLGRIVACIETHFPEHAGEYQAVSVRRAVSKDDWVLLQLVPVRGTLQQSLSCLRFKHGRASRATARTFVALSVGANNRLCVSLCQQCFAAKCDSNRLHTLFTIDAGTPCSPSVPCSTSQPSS
T1 sequence (P10192 1-750 partner): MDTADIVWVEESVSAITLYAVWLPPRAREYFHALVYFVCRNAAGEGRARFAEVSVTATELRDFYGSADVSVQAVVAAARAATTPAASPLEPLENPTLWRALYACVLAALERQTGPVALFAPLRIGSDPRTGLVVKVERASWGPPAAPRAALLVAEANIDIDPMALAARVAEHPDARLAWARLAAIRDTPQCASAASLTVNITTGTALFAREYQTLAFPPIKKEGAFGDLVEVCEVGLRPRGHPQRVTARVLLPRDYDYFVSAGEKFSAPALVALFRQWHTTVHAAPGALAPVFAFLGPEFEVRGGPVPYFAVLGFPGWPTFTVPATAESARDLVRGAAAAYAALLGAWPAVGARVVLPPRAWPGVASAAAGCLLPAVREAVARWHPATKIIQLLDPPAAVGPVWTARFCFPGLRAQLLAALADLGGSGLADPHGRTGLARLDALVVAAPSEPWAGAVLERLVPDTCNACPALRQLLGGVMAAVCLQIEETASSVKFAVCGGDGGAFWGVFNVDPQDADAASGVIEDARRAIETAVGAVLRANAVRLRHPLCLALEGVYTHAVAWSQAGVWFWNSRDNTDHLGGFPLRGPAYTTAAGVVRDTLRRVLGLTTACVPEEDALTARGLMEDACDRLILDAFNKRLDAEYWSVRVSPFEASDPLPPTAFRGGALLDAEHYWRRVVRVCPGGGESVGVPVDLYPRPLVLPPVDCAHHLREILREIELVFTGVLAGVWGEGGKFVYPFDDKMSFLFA
Kind of assay: NADH-coupled ATPase assay, Morrison fit of Kiapp, mixed inhibition model. It is filed as biochemical.

The molecule `Cc1cccc(C)c1N(CC(=O)Nc1ccc(-c2ncon2)cc1)C(=O)C1CCS(=O)(=O)CC1` [amenamevir] registered a Ki of 1.84 ± 0.16 nM. On to `Cc1nc(N(C)C(=O)Cc2ccc(-c3ccccn3)cc2)sc1S(N)(=O)=O` [pritelivir], for which the Ki is 1.99 ± 0.18 nM.
